ChEMBL document CHEMBL1152209, “Synthesis and biological activity of previtamin D(3) analogues with A-ring modifications” (2008)

Columns and labels:
[1] = molecular target: T1, Vitamin D-binding protein (Homo sapiens) (UniProt P02774); assay: Binding affinity to human DBP at EC50 in 4 degC relative to 1-alpha,25-(OH)2D3
T1 sequence (whole entry): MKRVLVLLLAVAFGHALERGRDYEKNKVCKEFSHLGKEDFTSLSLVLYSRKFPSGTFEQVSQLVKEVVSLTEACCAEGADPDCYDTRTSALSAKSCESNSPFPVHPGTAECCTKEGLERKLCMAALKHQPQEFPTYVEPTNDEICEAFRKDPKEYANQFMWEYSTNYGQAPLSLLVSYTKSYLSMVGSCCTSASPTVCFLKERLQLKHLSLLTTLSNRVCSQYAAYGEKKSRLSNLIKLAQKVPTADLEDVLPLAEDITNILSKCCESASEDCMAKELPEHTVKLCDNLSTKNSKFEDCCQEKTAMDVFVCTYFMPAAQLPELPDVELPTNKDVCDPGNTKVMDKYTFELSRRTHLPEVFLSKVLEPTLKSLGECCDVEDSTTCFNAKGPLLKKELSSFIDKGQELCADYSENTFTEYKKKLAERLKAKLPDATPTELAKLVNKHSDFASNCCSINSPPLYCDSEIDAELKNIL

[2] = molecular target: T2, Vitamin D3 receptor (Sus scrofa) (UniProt A3RGC1); assay: Displacement of [3H]1-alpha,25-(OH)2D3 from pig VDR at EC50 relative to 1-alpha,25-(OH)2D3
T2 sequence (whole entry): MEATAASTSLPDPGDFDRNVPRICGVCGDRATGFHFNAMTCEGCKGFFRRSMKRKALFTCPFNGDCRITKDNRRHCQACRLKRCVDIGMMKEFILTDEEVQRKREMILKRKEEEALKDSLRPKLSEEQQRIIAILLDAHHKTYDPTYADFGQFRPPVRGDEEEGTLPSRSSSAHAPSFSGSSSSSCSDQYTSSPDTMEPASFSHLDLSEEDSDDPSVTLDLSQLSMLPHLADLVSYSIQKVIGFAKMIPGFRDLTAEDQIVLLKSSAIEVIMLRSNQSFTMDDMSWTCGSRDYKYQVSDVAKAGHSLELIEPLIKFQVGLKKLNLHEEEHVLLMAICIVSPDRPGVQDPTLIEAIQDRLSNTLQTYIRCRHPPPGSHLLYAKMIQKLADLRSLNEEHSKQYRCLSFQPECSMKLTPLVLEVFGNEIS

MCF7 = assay: Inhibition of human MCF7 cell proliferation assessed as [3H]thymidine incorporation at EC50 after 72 hrs relative to 1-alpha,25-(OH)2D3; format: functional

| SMILES | Activity [1] | Activity [2] | inhibition (INH) (MCF7) |
| --- | --- | --- | --- |
| C[C@H](CCCC(C)(C)O)[C@H]1CC[C@H]2C(/C=C\C3=C[C@@H](O)[C@H](OCCCO)[C@H](O)C3)=CCC[C@]12C | 0.5% | 0% | 0% |
| C[C@H](CCCC(C)(C)O)[C@H]1CC[C@H]2C(/C=C\C3=C[C@@H](O)[C@@H]4O[C@@H]4C3)=CCC[C@]12C | 0.9% | 0% | 0% |
